Columns and labels:
fibrosis on capsules = assay: Fibrosis formation on capsules retrieved 60 days after transplantation (observation, DNA fluorescent staining); format: in vivo, mice; details: FIG. 9
Protocol: Sixty days after transplantation of islet-containing capsules, the mice from example 6 were sacrificed by CO2 asphyxiation. A lapratomy was performed to expose the abdominal cavity and capsules were retrieved by an abdominal lavage with HEPES buffer. The abdominal cavity was examined closely to identify remaining capsules, which if found were gently removed using atraumatic tweezers. The retrieved capsules were subsequently washed several times in HEPES buffer and imaged at 2× magnification using an EVOS brightfield microscope (AMG). Finally, capsules were transferred into a 1.5 ml Eppendorf tube, and frozen at −20° C. for future analysis.
50 μl of retrieved capsules (120-150 alginate capsules) were transferred to each well of a 24-well Millicell® cell culture insert (Millipore) using wide-orifice pipette tips (Fisher Scientific, Pittsburgh, Pa., USA). The capsules were incubated at 37° C. for 45 min in 800 μl of 0.001 mg/ml Hoersch 33342 dye (Invitrogen) prepared from stock solution by dilution with HEPES buffer. Afterwards, these capsules were washed four times with HEPES buffer. […] Finally, fluorescent signals from the stained capsules were obtained using a Tecan UV-VIS absorbance plate reader at with the excitation and emission wavelengths of 350 nm and 460 nm respectively.
A rigorous quantification technique was developed to assess fibrosis on capsules via DNA fluorescent staining. […]

RAW 264.7 macrophages = assay: Co-culture of macrophages and encapsulated islets: macrophage proliferation; format: cell-based; details: hybrid alginate capsules with 2 mg/ml dexamethasone or 1 mg/ml curcumin, 4 days co-culture
Protocol: (§1) RAW 264.7 macrophages were cultured in RPMI-1640 medium supplemented with 10% FBS, 100 units/ml penicillin and 100 μg/ml streptomycin (Invitrogen). The cells were sub-cultured every 2-3 days. 0.2 million macrophages in 3 ml of fresh culture medium were seeded into each well of a six-well tissue-culture treated polystyrene plate and allowed to adhere to the plate surface over night. The culture medium was removed and encapsulated islets were added in 3 ml of fresh medium to each well with adherent macrophages. Co-culturing of encapsulated islets with macrophages was maintained for four days. Afterwards, supernatant samples were collected and frozen at −20° C. for future insulin analysis with an insulin ELISA kit (ALPCO diagnostics). Encapsulated islets were collected into new plates. Both encapsulated islets and remaining adherent macrophages were washed in HEPES buffer and subjected to live-dead fluorescent staining (Invitrogen) for viability assessment.
(§2) An in vitro experiment was designed to test whether the presence of immune cells affects insulin secretion by islets. Hybrid alginate capsules containing islet cells and 2 mg/ml of dexamethasone or 1 mg/ml of curcumin were fabricated. Islet cells were encapsulated alone as a positive control. As a negative control, encapsulated islets were co-cultured with a macrophage cell line adherent to the plate's bottom. […]

encapsulated islets = format: cell-based; details: hybrid alginate capsules with 2 mg/ml dexamethasone or 1 mg/ml curcumin, 4 days co-culture, FIG. 5
Protocol: as §1, §2

[1] = tested on: C57/B6 mice with streptozotocin (STZ)-induced diabetes; assay: Transplantation of encapsulated rat islets into STZ-induced diabetic mice, daily blood glucose monitoring; format: in vivo; details: daily blood glucose over 2 months, marginal mass of islets, intraperitoneal, n=6-7
Protocol: Alginate with high gluronic acid content SLG20 (Novamatrix, FMC Polymer, Drammen, Norway) was dissolved in sterile 0.9% (w/v) NaCl to give an alginate solution of 1.5% (w/v). To prepare hybrid drug-islet capsule, 1.5% (w/v) alginate was mixed with curcumin (Sigma Aldrich) at 0.3-1.0 mg/ml or with dexamethasone (Sigma Aldrich) at 1-2 mg/ml and stirred for 3-4 days to ensure that the drug is homogenously dispersed. During this mixing period, curcumin-alginate mixture was wrapped in aluminium foil to avoid light exposure which might oxidize this drug. One day after islet isolation, islets were washed twice with Ca-free Krebs and mixed with the alginate suspension with or without dispersed drug at a pre-cross-linking islet density of approximately 750-1000 islets/ml. […]
Male Sprague—Dawley rats, 200-250 g, also obtained from Charles River Laboratories, were used as islet donors. […] The mice were observed daily till after the final STZ injection when they are weighed and their blood glucose levels determined. Mice were confirmed diabetic if their non-fasted blood glucose level rose above 300 mg/dL for two consecutive daily readings. […]
Xenogeneic transplants of encapsulated rat islets to diabetic mice recipients were performed to examine the reversibility of diabetes. […] Shortly thereafter, islet-containing capsules were sampled in quadruplicate, the total islets number was counted. […]

[2] = tested on: islet cells in retrieved capsules; assay: Insulin secretion from retrieved capsules; format: in vivo; details: 24 hours, FIG. 10
Protocol: Sixty days after transplantation of islet-containing capsules, the mice from example 6 were sacrificed by CO2 asphyxiation. A lapratomy was performed to expose the abdominal cavity and capsules were retrieved by an abdominal lavage with HEPES buffer. The abdominal cavity was examined closely to identify remaining capsules, which if found were gently removed using atraumatic tweezers. The retrieved capsules were subsequently washed several times in HEPES buffer and imaged at 2× magnification using an EVOS brightfield microscope (AMG). Finally, capsules were transferred into a 1.5 ml Eppendorf tube, and frozen at −20° C. for future analysis. Insulin secretion was measured from the retrieved capsules for 24 hours.

Q: Which results are given for COc1cc(/C=C/C(=O)CC(=O)/C=C/c2ccc(O)c(OC)c2)ccc1O [curcumin]?
A: fibrosis by DNA fluorescence of retrieved capsules (fibrosis on capsules): reduced fibrosis with statistical significance; macrophages proliferation (RAW 264.7 macrophages): hindered macrophages proliferation; insulin secretion from encapsulated islets co-cultured with macrophages (encapsulated islets): restored insulin secretion; glycemic control [1]: improved glycemic control; insulin secretion from retrieved capsules [2]: greatly improved insulin secretion
